# Results taken from patent US20030005484A1, “Microbiocidal and pesticidal aromatic aldehydes” (ProGuard, Inc., priority 1994, published 2003).
# Read-outs that look alike come from different tables or passages of the source.
# What was measured:
# [1] = test system: root-knot nematode, Meloidogyne javanica; format: in vivo
# Description: In a double blind study, concentrations of the subject aldehyde compounds were tested for activity against root-knot nematode, Meloidogyne javanica. Nematodes were put in direct contact with the chemical and at 24 hour intervals, mortality was assessed both visually and by probing. Meloidogyne javanica were produced using hydroponics. The nematodes were harvested and used within 24 hours.
# Approximately 100 nematodes in 0.07 mls of water were pipetted into a syracuse dish (Fisher) and 1 ml of test formulation was immediately pipetted into each dish. The dishes were then placed into plastic bags to retain moisture and prevent evaporation. Four syracuse dishes were used for each solution test formulation. […] Moving nematodes were counted as living.
# [2] = test system: Roll Lesion nematode; test: vineyard grape vines, nematode infestation: roll lesion; format: in vivo
# Description: The subject formulations were tested for ability to reduce grape vine infestation by root knot, ring, stubby root, and roll lesion nematodes. Grape vines (Harmony rootstock) in a vinyard were treated with 1000 ppm or 3000 ppm cinnamaldehyde in 2% Tween 80, the commercial anti-nematode agent Nemacur, or a formulation blank. The extent of nematode infestation was determined at the time of treatment and at 30 and 60 days post-treatment.
# [3] = test system: melon aphid (Aphis gossypli Glover); test: melon aphid bioassay with Storax formulations; format: in vivo, Aphis gossypii; details: previous bioassays; plants sprayed to run-off at 1,000 ppm
# Description: The purpose of this study was to determine the effect of STORAX incorporated into various formulations to evaluate its potential use as a synergist. Initial bioassays were conducted using STORAX at 0.6%, 1.0%, 2.0% with Tween 80 (1%) only. A second bioassay was conducted to evaluate the efficacy of STORAX (at 0.6%) alone and STORAX (at 0.6%) plus cinnamic aldehyde (at 0.1%) or alpha hexyl cinnamaldehyde (at 0.1%). […] STORAX combined with cinnamic aldehyde or α-hexyl cinnamic aldehyde reduced the time course of lethality and increases mortality. Moreover, the cinnamic aldehyde-STORAX formulation approaches the lethal time (LT) required at 2 h for kill of certain virus transmitting pests (e.g., brown citrus aphid).
# [4] = test system: powdery mildew; test: powdery mildew on Cabernet Sauvignon grapes; format: in vivo; details: for % CLUSTERS INFECTED-FIRST DAY / MEAN # OF BERRIES/CLUSTER INFECTED FIRST DAY: 2 days post treatment; for % CLUSTERS INFECTED-SECOND DAY / MEAN # OF BERRIES/CLUSTER INFECTED SECOND DAY: 10 days post-treatment
# Description: The effect of 0.3% and 0.6% cinnamic aldehyde on powdery mildew on grapes was examined. A 3 acre block of Cabernet Sauvignon that was severely infested with powdery mildew (primarily on grape berries) was sprayed with either 0.3% or 0.6% cinnamic aldehyde using a 300 gal. Pul-Blast sprayer at 160 psi fitted with 10, D4 nozels using a #56 core. Approximately 1.25 acres were treated for each cinnamic aldehyde concentration. A 0.5 acre plot of control grape vines were sprayed with a tank mix at label rates of other commercially available pesticides (Abound, Provado, Kelthan, Silwet L-77 and a foliar nutrient spray( 10-12-0+2% zinc)) costing approximately $87.00/acre. For the two cinnamic aldehyde treatments and control plots, 2 rows per treatment were visually inspected for severe powdery mildew infections and marked with flagging tape. At least 10 locations were marked in each row inspected and defined sampling positions for determining efficacy of the treatments. Water sensitive cards were placed at the level of the cordon wire (where grape clusters are located) and were used to monitor spray coverage. Two and ten days subsequent to treatment, samples from two sides of each vine (to include variable powdery mildew incidence due to sun exposure) were examined for powdery mildew. […] 0.3% cinnamic aldehyde reduced powdery mildew infection of grapes to a level similar to the positive control while 0.6% cinnamic aldehyde reduced powdery mildew infection even more than the standard. Upon examination of the mean number of berries infected with powdery mildew, again, it was evident that both 0.3% and 0.6% cinnamic aldehyde reduced the extent of powdery mildew infection to levels that were to similar or less than the positive control respectively.
# [5] = test system: pacific mites; test: pacific mites on Chardonnay grapevines; format: in vivo; details: for PERCENT INHIBITION / POST-SPRAY MITES: 150 gal./acre, 4 days after spraying; for PRE-SPRAY MITES: baseline
# Description: The effect of 0.3% and 0.6% cinnamic aldehyde on pacific mites on grapevine leaves was examined cinnamic aldehyde was diluted to 0.3% and 0.6% in water. Each formulation was sprayed onto a 1 acre block of Chardonnay wine grapes with a tractor-drawn 500 gal. hydraulic sprayer at 150 psi at a rate of 150 gal./acre. As a control, a 10-acre block of Chardonnay wine grapes was treated the same day as the test formulations with the conventional treatment (Omite) per label directions. The number of mites was counted the day prior to spraying and 4 days after spraying. […] In fact, both concentrations reduced the number of mites to a larger extent than the positive control, conventional treatment, Omite. The 0.6% rate nearly eliminated live mites on grapevines. […] The 0.6% was slightly beter than the 0.3 % cinnamic aldehyde with respect to powdery mildew control.
structure (smiles),measurement,setting,value
O=C/C=C/c1ccccc1 [cinnamic aldehyde],effect on mortality,[1]; 0.1 ppm in vehicle,no effect on mortality
same,effect on mortality,[1]; 1 ppm in vehicle,no effect on mortality
same,nematodes dead,"[1]; 10 ppm in vehicle, 24 hours",0%
same,nematodes dead,"[1]; 10 ppm in vehicle, 48 hours",15%
same,nematodes dead,"[1]; 10 ppm in vehicle, 72 hours",17.5%
same,nematodes dead,"[1]; 10 ppm in vehicle, 96 hours",22.5%
same,nematodes dead,"[1]; 10 ppm in vehicle, 108 hours",27.5%
same,nematodes dead,"[1]; 10 ppm in vehicle, 132 hours",52.5%
same,nematodes dead,"[1]; 10 ppm in vehicle, 156 hours",52.5%
same,nematodes dead,"[1]; greater than 100 ppm in vehicle (2% Tween 80, 6% NaHCO3), 24 hours",100%
same,"Roll Lesion, nematodes per gram root","[2]; 1000 ppm in 2% Tween 80, 30 days post-treatment",2.7 per gram root
same,"Roll Lesion, nematodes per gram root","[2]; 1000 ppm in 2% Tween 80, 60 days post-treatment",0 per gram root
same,"Roll Lesion, nematodes per gram root","[2]; 1000 ppm in 2% Tween 80, day 0 (time of treatment)",2.9 per gram root
same,"Roll Lesion, nematodes per gram root","[2]; 3000 ppm in 2% Tween 80, 30 days post-treatment",0.56 per gram root
same,"Roll Lesion, nematodes per gram root","[2]; 3000 ppm in 2% Tween 80, day 0 (time of treatment)",1.0 per gram root
same,time at which an LD50 was observed,[3],2 h
same,time at which an LD75 was observed,[3],24 h
same,% CLUSTERS INFECTED-FIRST DAY,[4]; 0.3% CNMA,60%
same,MEAN # OF BERRIES/CLUSTER INFECTED FIRST DAY,[4]; 0.3% CNMA,3.1
same,% CLUSTERS INFECTED-SECOND DAY,[4]; 0.3% CNMA,0.22%
same,MEAN # OF BERRIES/CLUSTER INFECTED SECOND DAY,[4]; 0.3% CNMA,0.72
same,% CLUSTERS INFECTED-FIRST DAY,[4]; 0.6% CNMA,25%
same,MEAN # OF BERRIES/CLUSTER INFECTED FIRST DAY,[4]; 0.6% CNMA,0.5
same,% CLUSTERS INFECTED-SECOND DAY,[4]; 0.6% CNMA,0.2%
same,MEAN # OF BERRIES/CLUSTER INFECTED SECOND DAY,[4]; 0.6% CNMA,0.25
same,time control of powdery mildew was maintained,"[4]; both treatments, 0.3% and 0.6%",at least three weeks
same,PERCENT INHIBITION,[5]; 0.3% CNMA in water,89%
same,POST-SPRAY MITES,[5]; 0.3% CNMA in water,4.5
same,PERCENT INHIBITION,[5]; 0.6% CNMA in water,98%
same,POST-SPRAY MITES,[5]; 0.6% CNMA in water,0.5
same,PRE-SPRAY MITES,[5]; day prior to spraying 0.3% CNMA,41.4
same,PRE-SPRAY MITES,[5]; day prior to spraying 0.6% CNMA,32.5
